Results: patent publication US9125913B2, “Bcl-2-selective apoptosis-inducing agents for the treatment of cancer and immune diseases” (AbbVie Inc., priority 2008, dated 2015)

tested on: GST-Bcl-2; assay: TR-FRET binding assay, Bcl-2; conditions: TR-FRET Ki values
How it was run: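 Ki values come from Wang's competitive-binding equation applied to TR-FRET signal (excitation 340/35 nm; emission 520/525 nm F-Bak peptide, 495/510 nm Tb antibody). Protein, probe and antibody incubated with compound 3 h at room temperature; dilution series began at 50 μM as 2× stock in 10% DMSO.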

Compound	Binding selectivity ratio (Bcl-XL Ki/Bcl-2 Ki)
CC1(C)CCC(CN2CCN(c3ccc(C(=O)NS(=O)(=O)c4ccc(NC[C@H]5CCCO5)c([N+](=O)[O-])c4)c(Oc4ccc5[nH]ccc5c4)c3)CC2)=C(c2ccc(Cl)cc2)C1 [EXAMPLE 370, 4-(4-{[2-(4-chlorophenyl)-4,4-dimethylcyclohex-1-en-1-yl]methyl}piperazin-1-yl)-2-(1H-indol-5-yloxy)-N-[(3-nitro-4-{[(2R)-tetrahydrofuran-2-ylmethyl]amino}phenyl)sulfonyl]benzamide]	>729.9
CC(C)[C@H](CO)Nc1ccc(S(=O)(=O)NC(=O)c2ccc(N3CCN(CC4=C(c5ccc(Cl)cc5)CC(C)(C)CC4)CC3)cc2Oc2ccc3[nH]ccc3c2)cc1[N+](=O)[O-] [EXAMPLE 371, 4-(4-{[2-(4-chlorophenyl)-4,4-dimethylcyclohex-1-en-1-yl]methyl}piperazin-1-yl)-N-[(4-{[(1R)-1-(hydroxymethyl)-2-methylpropyl]amino}-3-nitrophenyl)sulfonyl]-2-(1H-indol-5-yloxy)benzamide]	>78.8
CC1(C)CCC(CN2CCN(c3ccc(C(=O)NS(=O)(=O)c4ccc(NCCCN5CCCC5=O)c([N+](=O)[O-])c4)c(Oc4ccc5[nH]ccc5c4)c3)CC2)=C(c2ccc(Cl)cc2)C1 [EXAMPLE 374, 4-(4-{[2-(4-chlorophenyl)-4,4-dimethylcyclohex-1-en-1-yl]methyl}piperazin-1-yl)-2-(1H-indol-5-yloxy)-N-[(3-nitro-4-{[3-(2-oxopyrrolidin-1-yl)propyl]amino}phenyl)sulfonyl]benzamide]	>291.2
CC1(C)CCC(CN2CCN(c3ccc(C(=O)NS(=O)(=O)c4ccc(Nc5ccc(O)cc5)c([N+](=O)[O-])c4)c(Oc4ccc5[nH]ccc5c4)c3)CC2)=C(c2ccc(Cl)cc2)C1 [EXAMPLE 375, 4-(4-{[2-(4-chlorophenyl)-4,4-dimethylcyclohex-1-en-1-yl]methyl}piperazin-1-yl)-N-({4-[(4-hydroxyphenyl)amino]-3-nitrophenyl}sulfonyl)-2-(1H-indol-5-yloxy)benzamide]	>58.6
CC1(C)CCC(CN2CCN(c3ccc(C(=O)NS(=O)(=O)c4ccc(NCCc5ccc(S(N)(=O)=O)cc5)c([N+](=O)[O-])c4)c(Oc4ccc5[nH]ccc5c4)c3)CC2)=C(c2ccc(Cl)cc2)C1 [EXAMPLE 376, N-{[4-({2-[4-(aminosulfonyl)phenyl]ethyl}amino)-3-nitrophenyl]sulfonyl}-4-(4-{[2-(4-chlorophenyl)-4,4-dimethylcyclohex-1-en-1-yl]methyl}piperazin-1-yl)-2-(1H-indol-5-yloxy)benzamide]	>29.5
CC1(C)CCC(CN2CCN(c3ccc(C(=O)NS(=O)(=O)c4ccc(NCCCn5ccnc5)c([N+](=O)[O-])c4)c(Oc4ccc5[nH]ccc5c4)c3)CC2)=C(c2ccc(Cl)cc2)C1 [EXAMPLE 377, 4-(4-{[2-(4-chlorophenyl)-4,4-dimethylcyclohex-1-en-1-yl]methyl}piperazin-1-yl)-N-[(4-{[3-(1H-imidazol-1-yl)propyl]amino}-3-nitrophenyl)sulfonyl]-2-(1H-indol-5-yloxy)benzamide]	2317.4
C[C@H](Nc1ccc(S(=O)(=O)NC(=O)c2ccc(N3CCN(CC4=C(c5ccc(Cl)cc5)CC(C)(C)CC4)CC3)cc2Oc2ccc3[nH]ccc3c2)cc1[N+](=O)[O-])c1ccccc1 [EXAMPLE 378, 4-(4-{[2-(4-chlorophenyl)-4,4-dimethylcyclohex-1-en-1-yl]methyl}piperazin-1-yl)-2-(1H-indol-5-yloxy)-N-[(3-nitro-4-{[(1S)-1-phenylethyl]amino}phenyl)sulfonyl]benzamide]	>10.5
CC1(C)CCC(CN2CCN(c3ccc(C(=O)NS(=O)(=O)c4cc(F)c(NCC5CCOCC5)cc4Cl)c(Oc4ccc5[nH]ccc5c4)c3)CC2)=C(c2ccc(Cl)cc2)C1 [EXAMPLE 379, N-({2-chloro-5-fluoro-4-[(tetrahydro-2H-pyran-4-ylmethyl)amino]phenyl}sulfonyl)-4-(4-{[2-(4-chlorophenyl)-4,4-dimethylcyclohex-1-en-1-yl]methyl}piperazin-1-yl)-2-(1H-indol-5-yloxy)benzamide]	>2.6
COCCOCCSc1ccc(S(=O)(=O)NC(=O)c2ccc(N3CCN(CC4=C(c5ccc(Cl)cc5)CC(C)(C)CC4)CC3)cc2Oc2ccc3[nH]ccc3c2)cc1[N+](=O)[O-] [EXAMPLE 380, 4-(4-{[2-(4-chlorophenyl)-4,4-dimethylcyclohex-1-en-1-yl]methyl}piperazin-1-yl)-2-(1H-indol-5-yloxy)-N-[(4-{[2-(2-methoxyethoxy)ethyl]thio}-3-nitrophenyl)sulfonyl]benzamide]	2107.3
COCCOCCSc1ccc(S(=O)(=O)NC(=O)c2ccc(N3CCN(CC4=C(c5ccc(Cl)cc5)CC(C)(C)CC4)CC3)cc2Oc2cccc3[nH]ccc23)cc1[N+](=O)[O-] [EXAMPLE 381, 4-(4-{[2-(4-chlorophenyl)-4,4-dimethylcyclohex-1-en-1-yl]methyl}piperazin-1-yl)-2-(1H-indol-4-yloxy)-N-[(4-{[2-(2-methoxyethoxy)ethyl]thio}-3-nitrophenyl)sulfonyl]benzamide]	448.3
CC1(C)CCC(CN2CCN(c3ccc(C(=O)NS(=O)(=O)c4ccc(S(C)(=O)=O)cc4)c(Oc4ccc5[nH]ccc5c4)c3)CC2)=C(c2ccc(Cl)cc2)C1 [EXAMPLE 382, 4-(4-{[2-(4-chlorophenyl)-4,4-dimethylcyclohex-1-en-1-yl]methyl}piperazin-1-yl)-2-(1H-indol-5-yloxy)-N-{[4-(methylsulfonyl)phenyl]sulfonyl}benzamide]	>573.9
CC1(C)CCC(CN2CCN(c3ccc(C(=O)NS(=O)(=O)c4ccc(S(C)(=O)=O)cc4)c(Oc4cccc5[nH]ccc45)c3)CC2)=C(c2ccc(Cl)cc2)C1 [EXAMPLE 383, 4-(4-{[2-(4-chlorophenyl)-4,4-dimethylcyclohex-1-en-1-yl]methyl}piperazin-1-yl)-2-(1H-indol-4-yloxy)-N-{[4-(methylsulfonyl)phenyl]sulfonyl}benzamide]	>304.1
CC1(C)CCC(CN2CCN(c3ccc(C(=O)NS(=O)(=O)c4ccc(OCC5CCOC(C)(C)C5)c([N+](=O)[O-])c4)c(Oc4ccc5[nH]ccc5c4)c3)CC2)=C(c2ccc(Cl)cc2)C1 (centres unmarked) [EXAMPLE 384, 4-(4-{[2-(4-chlorophenyl)-4,4-dimethylcyclohex-1-en-1-yl]methyl}piperazin-1-yl)-N-({4-[(2,2-dimethyltetrahydro-2H-pyran-4-yl)methoxy]-3-nitrophenyl}sulfonyl)-2-(1H-indol-5-yloxy)benzamide]	>8684.2
CC1(C)CCC(CN2CCN(c3ccc(C(=O)NS(=O)(=O)c4cnc(OCC5(F)CCOCC5)c(C#N)c4)c(Oc4ccc5[nH]ccc5c4)c3)CC2)=C(c2ccc(Cl)cc2)C1 [EXAMPLE 385, 4-(4-{[2-(4-chlorophenyl)-4,4-dimethylcyclohex-1-en-1-yl]methyl}piperazin-1-yl)-N-({5-cyano-6-[(4-fluorotetrahydro-2H-pyran-4-yl)methoxy]pyridin-3-yl}sulfonyl)-2-(1H-indol-5-yloxy)benzamide]	2096.5
